For 21 molecules, MIC90 and melting point results are on record in patent US9725432B2, “Pyrimidine derivatives for the treatment of bacterial diseases” (JANSSEN R&D IRELAND, priority 2012, dated 2017).

For one data set, the system named is Staphylococcus aureus. The data set is described as follows: MIC determination of compounds on ECO/PAE/STA in microplates. The conditions noted are these: lowest concentration with no growth (90% inhibition of growth), 18-20 hours at 37° C., visual, strain not given. The data set is classed as cell-based.

In brackets after ≈: the same amount, converted by molar mass.

On to `CC(C)(C)CNCCNc1nc(-c2ccncc2)ncc1-c1cccc(C#N)c1` [Compound 73], for which, in the data set with Staphylococcus aureus, the MIC90 is > 64 µg/mL.
In the case of `CC(C)(C)CN1CCN(c2nc(-c3ccncc3)ncc2-c2cccc(C#N)c2)CC1` [Compound 74], the melting point was 155 to 164 °C. The same molecule displayed an MIC90 in the data set on Staphylococcus aureus of 0.125 µg/mL (≈ 0.303 µM).
The corresponding values for `CC(C)(C#N)CN1CCC(c2nc(-c3ccncc3)ncc2-c2cccc(C#N)c2)CC1` [Compound 75] are 79 to 87 °C and 0.5 µg/mL (≈ 1.18 µM).
The corresponding values for `N#Cc1cccc(-c2cnc(-c3ccc(F)cc3)nc2C2CCN(CC(F)(F)F)CC2)c1` [Compound 76] are 157 to 158 °C and 0.125 µg/mL (≈ 0.284 µM).
The matching figures for `CC(C)(C)C(=O)N1CCC(c2nc(-c3ccc(F)cc3)ncc2-c2cccc(C#N)c2)CC1` [Compound 77]: 75 to 80 °C and 0.25 µg/mL (≈ 0.565 µM).
Molecule `COc1cccc(-c2cnc(-c3ccc(F)cc3)nc2C2CCN(CC(C)(C)C#N)CC2)c1` [Compound 78] yielded a melting point of 119 °C. This molecule showed an MIC90 against Staphylococcus aureus of 0.125 µg/mL (≈ 0.281 µM).
`COc1cccc(-c2cnc(-c3ccc(OC)nc3)nc2C2CCN(CC(F)(F)F)CC2)c1` [Compound 79] yielded an MIC90 against Staphylococcus aureus of 0.125 µg/mL (≈ 0.273 µM).
Molecule `CC(C)(C#N)CN1CCC(c2nc(-c3ccc(F)cc3)ncc2-c2cccc(C#N)c2)CC1` [Compound 80] came in with a melting point of 171 °C. The molecule also yielded an MIC90 against Staphylococcus aureus of 0.125 µg/mL (≈ 0.284 µM).
Take `COc1cccc(-c2cnc(-c3ccc(OC)nc3)nc2C2CCN(CC(C)(C)C#N)CC2)c1` [Compound 81]: the MIC90 in the data set with Staphylococcus aureus was 0.125 µg/mL (≈ 0.273 µM).
Take `CC(C)(C#N)CN1CCC(c2nc(-c3cncnc3)ncc2-c2cccc(C#N)c2)CC1` [Compound 82]: the melting point worked out at 182 °C. The MIC90 against Staphylococcus aureus came out at 1 µg/mL (≈ 2.36 µM).
The matching figures for `COc1cccc(-c2cnc(-c3ccc(C#N)cc3)nc2C2CCN(CC(F)(F)F)CC2)c1` [Compound 83]: 180 to 182 °C and 0.125 µg/mL (≈ 0.276 µM).
The molecule `N#Cc1ccc(-c2ncc(-c3cccc(C#N)c3)c(C3CCN(CC(F)(F)F)CC3)n2)cc1` [Compound 84] returned a melting point of 249 to 251 °C. In the data set on Staphylococcus aureus, the MIC90 came out at 0.125 µg/mL (≈ 0.279 µM).
The matching figures for `COc1ccc(-c2ncc(-c3cccc(C#N)c3)c(C3CCN(CC(C)(C)C#N)CC3)n2)cn1` [Compound 85]: 165 °C and 0.125 µg/mL (≈ 0.276 µM).
The corresponding values for `COc1cccc(-c2cnc(-c3ccc(C#N)cc3)nc2C2CCN(CC(C)(C)C#N)CC2)c1` [Compound 86] are 207 °C and 0.125 µg/mL (≈ 0.277 µM).
Molecule `CC(C)(C#N)CN1CCC(c2nc(-c3ccc(S(C)(=O)=O)cc3)ncc2-c2cccc(C#N)c2)CC1` [Compound 87] yielded a melting point of 101 to 122 °C. Besides, the MIC90 in the data set with Staphylococcus aureus stood at 2 µg/mL (≈ 4 µM).
In the data set on Staphylococcus aureus, `COc1cccc(-c2cnc(-c3ccc(Br)cc3)nc2C2CCN(CC(C)(C)C#N)CC2)c1` [Compound 88] returned an MIC90 of 0.125 µg/mL (≈ 0.247 µM).
The same measure, in the same setting: in the case of `CC(C)(C)S(=O)(=O)N1CCC(c2nc(-c3ccc(F)cc3)ncc2-c2cccc(C#N)c2)CC1` [Compound 89] it was 0.125 µg/mL (≈ 0.261 µM).
On the same count and under the same terms, next, `COc1cccc(-c2cnc(-c3ccc(Br)cc3)nc2C2CCN(CC(C)(C)C)CC2)c1` [Compound 90]: 0.25 µg/mL (≈ 0.506 µM).
Take `C#Cc1ccc(-c2ncc(-c3cccc(OC)c3)c(C3CCN(CC(C)(C)C)CC3)n2)cc1` [Compound 91]: the MIC90 in the data set on Staphylococcus aureus stood at 0.5 µg/mL (≈ 1.14 µM). Against the preceding molecule, the MIC90 is about 2-fold higher.
Still for that read-out and setting: in the case of `C#Cc1ccc(-c2ncc(-c3cccc(OC)c3)c(C3CCN(CC(C)(C)C#N)CC3)n2)cc1` [Compound 92] it was 0.125 µg/mL (≈ 0.277 µM).
On the same count and under the same terms, next, `C#Cc1ccc(-c2ncc(-c3cccc(OC)c3)c(C3CCN(CC(F)(F)F)CC3)n2)cc1` [Compound 93]: 0.125 µg/mL (≈ 0.277 µM).

In general, MIC90 refers to the lowest concentration that inhibits either 90% of growth or 90% of the strains tested, depending on the study. For orientation: melting point means the temperature of the solid-liquid transition.
